According to ChEMBL document CHEMBL1201862, “PubChem BioAssay data set” (2004):
Active and inactive are the calls of the source.

Columns and labels:
Paired box protein Pax-8 = Paired box protein Pax-8 (Homo sapiens, UniProt Q06710); test: inhibitors of PAX8-driven TPO luciferase reporter, dose response, RMG-I cells, cherry-pick (AID 687027); type: functional, cell-based;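 also: luciferase reporter driven by Pax8 target thyroperoxidase promoter measured by SteadyGlo luminescence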
[1] = non-specific cell cytotoxicity, dose response, cytotoxicity control for PAX8 inhibitor project, plate reader, dry powder samples (AID 743021); type: functional, cell-based
Jurkat = test: antigen receptor-induced NF-kB inhibitors, dose response, Jurkat, luciferase reporter, luminescence, B- and T-cell (AID 489004); type: functional, cell-based; conditions: Homo sapiens;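 also: NF-kB luciferase reporter Jurkat cells stimulated with PMA plus ionomycin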
[2] = Luminescent dose response cell-based high throughput screening assay for inhibitors of the Janus kinase 2 mutant JAK2V617F. [Related pubchem assays: 1446 (Primary screen.), 1521 (Confirmation assay.), 1486 (Counter screen.)]; type: functional
[3] = cytotoxicity in HEK-293T NF-kB-Luc cells, dose response, cytotoxicity control for B/T-cell NF-kB inhibitor project, cell-based, uHTS hits (AID 489019); type: functional;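 also: IC50 reflects cytotoxicity as loss of cell viability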
[4] = microbe, parasite or virus in culture; type: functional; conditions: Mycobacterium tuberculosis
cells = type: functional
[5] = M. tuberculosis H37Rv growth inhibitors, H37Rv strain (AID 1626); type: functional
[6] = biological target: T1, Probable nicotinate-nucleotide adenylyltransferase (Staphylococcus aureus (strain N315), UniProt P65502); type: functional, Staphylococcus aureus subsp. aureus N315;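 as to IC50 Mean: confirmatory dose-response retesting of NadD inhibitor hits first found in an ultra-high-throughput screen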
T1 sequence (P65502 whole entry): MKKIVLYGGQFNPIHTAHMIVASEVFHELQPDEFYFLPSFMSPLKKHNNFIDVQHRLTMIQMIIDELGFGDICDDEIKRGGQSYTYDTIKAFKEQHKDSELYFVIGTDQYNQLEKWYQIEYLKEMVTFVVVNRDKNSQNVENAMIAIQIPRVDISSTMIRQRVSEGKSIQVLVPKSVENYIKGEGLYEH

[7] = A High Throughput Confirmatory Assay used to Identify Novel Compounds that Inhibit Mycobacterium Tuberculosis in the absence of Glycerol.; type: functional
[8] = biological target: T1, Probable nicotinate-nucleotide adenylyltransferase; type: functional, Staphylococcus aureus subsp. aureus N315; conditions: read-out: IC50_Mean
[9] = M. tuberculosis growth inhibition, HTS (AID 449762); type: functional
Protein RecA = biological target: T2, Protein RecA (Mycobacterium tuberculosis, UniProt P9WHJ3); test: Fluorescence Cell-Free Homogeneous Dose Retest to Identify Inhibitors of RecA-Intein Splicing Activity. [Related pubchem assays (depositor defined):AID2097, AID2223, AID489010, AID492950]; type: functional
T2 sequence (P9WHJ3 whole entry): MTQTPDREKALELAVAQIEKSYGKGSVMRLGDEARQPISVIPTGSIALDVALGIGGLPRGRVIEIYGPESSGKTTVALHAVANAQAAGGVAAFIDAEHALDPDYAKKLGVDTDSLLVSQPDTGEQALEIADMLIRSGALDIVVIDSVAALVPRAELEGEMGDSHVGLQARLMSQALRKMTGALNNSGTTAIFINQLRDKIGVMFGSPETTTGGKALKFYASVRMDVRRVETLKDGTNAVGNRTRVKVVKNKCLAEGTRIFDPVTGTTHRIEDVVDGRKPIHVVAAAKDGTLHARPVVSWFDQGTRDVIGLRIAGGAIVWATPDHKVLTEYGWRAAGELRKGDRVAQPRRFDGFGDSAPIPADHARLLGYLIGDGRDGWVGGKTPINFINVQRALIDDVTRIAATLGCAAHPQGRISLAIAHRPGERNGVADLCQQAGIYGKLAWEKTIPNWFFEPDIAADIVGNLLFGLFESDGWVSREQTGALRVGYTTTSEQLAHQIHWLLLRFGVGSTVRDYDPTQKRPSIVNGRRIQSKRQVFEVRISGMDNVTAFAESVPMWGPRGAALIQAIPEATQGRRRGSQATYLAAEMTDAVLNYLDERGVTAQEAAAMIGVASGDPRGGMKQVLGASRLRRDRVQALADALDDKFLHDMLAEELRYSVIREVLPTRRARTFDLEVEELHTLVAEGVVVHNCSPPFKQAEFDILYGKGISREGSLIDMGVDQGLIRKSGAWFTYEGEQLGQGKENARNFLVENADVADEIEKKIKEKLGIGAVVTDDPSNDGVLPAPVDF

Aspartyl aminopeptidase = Aspartyl aminopeptidase (Plasmodium falciparum 3D7, UniProt Q8I2J3); test: Counterscreen for inhibitors of M1 and M17 aminopeptidases: QFRET-based biochemical high throughput dose response assay for inhibitors of the Plasmodium falciparum M18 Aspartyl Aminopeptidase (PFM18AAP). [Related PubChem assays: 1619 (Screening assay (M17LAP inhibitors).), 1445 (Screening assay (M1AAP inhibitors).)]
Sequence of Aspartyl aminopeptidase (Q8I2J3 whole entry): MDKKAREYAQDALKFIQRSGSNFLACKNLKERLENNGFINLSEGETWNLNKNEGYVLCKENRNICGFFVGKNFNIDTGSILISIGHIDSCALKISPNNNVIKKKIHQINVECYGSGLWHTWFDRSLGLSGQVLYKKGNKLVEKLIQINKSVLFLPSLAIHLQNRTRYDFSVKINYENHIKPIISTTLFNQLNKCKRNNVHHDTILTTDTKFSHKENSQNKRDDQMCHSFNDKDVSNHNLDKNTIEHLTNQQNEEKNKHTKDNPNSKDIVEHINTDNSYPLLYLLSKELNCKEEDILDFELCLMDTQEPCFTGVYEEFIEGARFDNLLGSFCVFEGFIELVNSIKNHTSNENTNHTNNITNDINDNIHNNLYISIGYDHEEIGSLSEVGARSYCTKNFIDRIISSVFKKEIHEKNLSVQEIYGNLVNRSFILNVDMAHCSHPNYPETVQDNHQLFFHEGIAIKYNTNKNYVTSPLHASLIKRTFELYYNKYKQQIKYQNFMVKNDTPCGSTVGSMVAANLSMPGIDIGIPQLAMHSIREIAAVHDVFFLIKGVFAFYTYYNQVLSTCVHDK

Procathepsin L = Procathepsin L (Homo sapiens, UniProt P07711); test: cathepsin L inhibitors, dose response, counter-screen for M1/M17 aminopeptidase inhibitor project, biochemical, QFRET, 1536-well (AID 2214)
Sequence of Procathepsin L (P07711 whole entry): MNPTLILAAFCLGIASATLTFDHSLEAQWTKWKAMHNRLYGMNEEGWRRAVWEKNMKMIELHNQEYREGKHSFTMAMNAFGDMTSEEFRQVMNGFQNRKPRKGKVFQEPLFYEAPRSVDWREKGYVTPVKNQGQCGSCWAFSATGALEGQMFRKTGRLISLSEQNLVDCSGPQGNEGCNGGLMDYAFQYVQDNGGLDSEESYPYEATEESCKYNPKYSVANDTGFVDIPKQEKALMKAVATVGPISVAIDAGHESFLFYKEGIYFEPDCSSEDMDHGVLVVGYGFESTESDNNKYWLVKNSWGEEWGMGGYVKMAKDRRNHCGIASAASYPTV

[10] = biological target: T3, Replicative DNA helicase DnaB (Mycobacterium tuberculosis, UniProt P9WMR3); test: DnaB intein splicing inhibitors, dose response, biochemical, cell-free fluorescence (AID 449749); type: functional
T3 sequence (P9WMR3 whole entry): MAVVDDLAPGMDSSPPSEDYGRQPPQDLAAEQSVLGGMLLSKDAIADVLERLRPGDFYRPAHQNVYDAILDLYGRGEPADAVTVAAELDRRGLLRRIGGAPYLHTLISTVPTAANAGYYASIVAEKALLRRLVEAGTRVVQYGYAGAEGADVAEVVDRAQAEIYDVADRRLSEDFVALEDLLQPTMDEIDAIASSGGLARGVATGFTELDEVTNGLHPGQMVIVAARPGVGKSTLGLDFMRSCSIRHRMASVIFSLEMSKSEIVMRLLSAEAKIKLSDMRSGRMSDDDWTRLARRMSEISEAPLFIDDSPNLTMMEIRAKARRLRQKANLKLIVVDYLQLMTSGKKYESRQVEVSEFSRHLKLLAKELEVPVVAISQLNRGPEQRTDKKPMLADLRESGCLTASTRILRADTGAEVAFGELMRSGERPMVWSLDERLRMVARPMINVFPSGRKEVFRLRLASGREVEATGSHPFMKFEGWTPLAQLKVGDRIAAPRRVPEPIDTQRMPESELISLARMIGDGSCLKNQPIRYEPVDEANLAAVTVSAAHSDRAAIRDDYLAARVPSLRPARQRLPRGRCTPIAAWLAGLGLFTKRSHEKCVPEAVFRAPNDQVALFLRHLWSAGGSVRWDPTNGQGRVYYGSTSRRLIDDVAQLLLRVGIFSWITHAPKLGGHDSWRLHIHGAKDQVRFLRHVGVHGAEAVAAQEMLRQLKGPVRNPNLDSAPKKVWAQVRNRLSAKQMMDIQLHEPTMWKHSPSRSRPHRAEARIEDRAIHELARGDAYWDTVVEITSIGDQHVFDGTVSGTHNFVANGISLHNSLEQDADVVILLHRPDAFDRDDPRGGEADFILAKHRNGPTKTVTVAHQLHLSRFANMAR

Leucine aminopeptidase = biological target: T4, Leucine aminopeptidase (Plasmodium falciparum 3D7, UniProt Q8IL11); test: P. falciparum M17LAP inhibitors, primary screen, biochemical, fluorogenic H-Leu-NHMec substrate, 1536-well (AID 1619); type: functional
T4 sequence (Q8IL11 whole entry): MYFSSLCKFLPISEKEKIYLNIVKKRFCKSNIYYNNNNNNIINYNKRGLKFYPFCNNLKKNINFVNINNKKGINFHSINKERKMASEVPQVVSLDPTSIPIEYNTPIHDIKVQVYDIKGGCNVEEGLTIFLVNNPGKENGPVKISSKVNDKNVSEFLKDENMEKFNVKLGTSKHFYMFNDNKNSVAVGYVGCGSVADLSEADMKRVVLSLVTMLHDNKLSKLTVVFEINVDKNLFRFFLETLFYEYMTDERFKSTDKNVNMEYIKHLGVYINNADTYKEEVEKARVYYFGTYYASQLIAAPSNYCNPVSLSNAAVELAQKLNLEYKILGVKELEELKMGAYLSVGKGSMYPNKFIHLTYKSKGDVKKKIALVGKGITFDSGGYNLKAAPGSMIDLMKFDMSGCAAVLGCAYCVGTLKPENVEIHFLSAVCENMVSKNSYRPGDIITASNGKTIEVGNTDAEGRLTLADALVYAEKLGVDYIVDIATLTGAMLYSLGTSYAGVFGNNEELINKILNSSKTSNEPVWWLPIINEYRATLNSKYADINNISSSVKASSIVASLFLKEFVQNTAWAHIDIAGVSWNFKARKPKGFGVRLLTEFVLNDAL

Cytochrome P450 3A4 = Cytochrome P450 3A4 (Homo sapiens, UniProt P08684); conditions: Potency;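 also: confirmatory qHTS run detecting inhibitors and substrates of CYP3A4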
Sequence of Cytochrome P450 3A4 (P08684 whole entry): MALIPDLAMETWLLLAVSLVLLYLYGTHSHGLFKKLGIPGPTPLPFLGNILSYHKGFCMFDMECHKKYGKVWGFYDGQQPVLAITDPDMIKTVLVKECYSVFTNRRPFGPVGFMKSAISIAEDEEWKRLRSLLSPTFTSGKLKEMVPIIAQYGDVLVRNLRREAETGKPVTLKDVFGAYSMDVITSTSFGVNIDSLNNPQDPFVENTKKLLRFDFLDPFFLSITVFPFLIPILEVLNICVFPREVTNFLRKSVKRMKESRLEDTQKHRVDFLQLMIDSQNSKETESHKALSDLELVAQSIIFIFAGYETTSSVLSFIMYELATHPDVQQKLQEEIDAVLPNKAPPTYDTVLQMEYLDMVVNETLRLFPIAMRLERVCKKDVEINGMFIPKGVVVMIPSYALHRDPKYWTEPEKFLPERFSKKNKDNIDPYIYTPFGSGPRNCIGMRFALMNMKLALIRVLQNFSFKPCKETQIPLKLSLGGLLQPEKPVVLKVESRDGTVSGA

Cytochrome P450 2C19 = Cytochrome P450 2C19 (Homo sapiens, UniProt P33261); test: qHTS Assay for Inhibitors and Substrates of Cytochrome P450 2C19. [Related pubchem assays: 410 ]; type: ADME; conditions: read-out: Potency
Vero = Vero cell cytotoxicity, cytotoxicity control for flavivirus capping enzyme inhibitors (AID 588742); type: functional; conditions: Chlorocebus sabaeus
[11] = Counterscreen for activators of the function of SWI/SNF related, matrix associated, actin dependent regulator of chromatin, subfamily a, member 2 (SMARCA2, BRM): Luminescence-based cell-based high throughput dose response assay to identify non-selective compounds using the VP16 reporter assay.; type: functional
[12] = biological target: Voltage-gated inwardly rectifying potassium channel KCNH2 (Homo sapiens, UniProt Q12809); test: hERG protection from proarrhythmic block, potency, dose response, cell-based, thallium flux (AID 2121); type: ADME
Sequence of Voltage-gated inwardly rectifying potassium channel KCNH2 (Q12809 whole entry): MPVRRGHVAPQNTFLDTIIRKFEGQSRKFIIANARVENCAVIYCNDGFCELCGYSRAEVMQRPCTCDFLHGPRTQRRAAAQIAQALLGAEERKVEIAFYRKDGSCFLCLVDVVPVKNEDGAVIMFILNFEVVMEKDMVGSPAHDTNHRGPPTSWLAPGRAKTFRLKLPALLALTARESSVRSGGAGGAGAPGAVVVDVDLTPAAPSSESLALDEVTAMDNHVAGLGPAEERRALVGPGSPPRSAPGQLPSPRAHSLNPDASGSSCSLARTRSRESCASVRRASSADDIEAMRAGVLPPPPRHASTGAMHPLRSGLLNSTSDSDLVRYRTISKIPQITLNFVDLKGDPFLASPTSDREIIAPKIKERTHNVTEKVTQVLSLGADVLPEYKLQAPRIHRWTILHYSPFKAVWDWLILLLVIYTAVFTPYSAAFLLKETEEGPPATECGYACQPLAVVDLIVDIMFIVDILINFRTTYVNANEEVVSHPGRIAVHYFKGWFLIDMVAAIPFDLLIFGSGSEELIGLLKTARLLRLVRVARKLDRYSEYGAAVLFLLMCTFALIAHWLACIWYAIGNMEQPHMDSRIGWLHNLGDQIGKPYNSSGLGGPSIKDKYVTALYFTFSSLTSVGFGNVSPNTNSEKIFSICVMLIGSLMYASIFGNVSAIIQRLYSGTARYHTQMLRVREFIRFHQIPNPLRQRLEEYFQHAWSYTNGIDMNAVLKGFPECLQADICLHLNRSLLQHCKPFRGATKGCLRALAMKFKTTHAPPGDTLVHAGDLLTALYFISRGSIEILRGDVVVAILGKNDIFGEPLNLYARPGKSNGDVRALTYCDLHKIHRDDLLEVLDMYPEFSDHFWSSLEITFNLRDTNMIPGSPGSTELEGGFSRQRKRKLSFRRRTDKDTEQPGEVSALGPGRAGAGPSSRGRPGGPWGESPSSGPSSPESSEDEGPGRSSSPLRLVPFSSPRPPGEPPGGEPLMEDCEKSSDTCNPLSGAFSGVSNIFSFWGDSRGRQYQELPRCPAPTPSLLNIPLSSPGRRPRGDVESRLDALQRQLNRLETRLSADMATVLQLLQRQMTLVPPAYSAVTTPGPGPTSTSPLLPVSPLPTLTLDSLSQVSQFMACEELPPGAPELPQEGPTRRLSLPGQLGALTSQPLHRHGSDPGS

[13] = biological target: SWI/SNF-related matrix-associated actin-dependent regulator of chromatin subfamily A member 2 (Homo sapiens, UniProt P51531); test: Luminescence-based cell-based high throughput dose response assay to identify activators of the function of SWI/SNF related, matrix associated, actin dependent regulator of chromatin, subfamily a, member 2 (SMARCA2, BRM).; type: functional
[14] = Luminescence Cell-Based Dose Confirmation HTS to Identify Inhibitors of Polyadenylation.; type: functional
14-3-3 protein gamma = 14-3-3 protein gamma (Homo sapiens, UniProt P61981); test: modulators of 14-3-3 gamma client binding – dose response (AID 711); type: functional
Sequence of 14-3-3 protein gamma (P61981 whole entry): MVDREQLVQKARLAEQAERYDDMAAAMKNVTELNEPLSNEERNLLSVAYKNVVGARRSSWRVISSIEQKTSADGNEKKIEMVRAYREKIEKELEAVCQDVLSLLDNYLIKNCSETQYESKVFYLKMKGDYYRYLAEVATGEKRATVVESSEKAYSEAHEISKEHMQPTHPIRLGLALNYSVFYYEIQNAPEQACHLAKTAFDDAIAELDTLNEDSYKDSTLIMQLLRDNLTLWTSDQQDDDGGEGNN

[15] = biological target: Sphingosine 1-phosphate receptor 2 (Homo sapiens, UniProt O95136); test: Dose Response Cell Based Assay for Antagonists of the S1P2 Receptor. [Related pubchem assays: 856, 736 ]; type: functional
Sequence of Sphingosine 1-phosphate receptor 2 (O95136 whole entry): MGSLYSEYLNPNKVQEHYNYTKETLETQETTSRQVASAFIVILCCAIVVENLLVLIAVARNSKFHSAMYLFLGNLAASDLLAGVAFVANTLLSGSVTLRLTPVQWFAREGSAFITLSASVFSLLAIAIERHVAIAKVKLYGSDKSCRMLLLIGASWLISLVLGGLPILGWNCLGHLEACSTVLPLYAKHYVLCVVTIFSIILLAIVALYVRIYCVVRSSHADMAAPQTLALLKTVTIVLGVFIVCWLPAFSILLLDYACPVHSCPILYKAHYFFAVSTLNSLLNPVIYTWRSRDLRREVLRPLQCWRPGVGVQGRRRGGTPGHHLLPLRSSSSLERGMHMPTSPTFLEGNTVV

[16] = biological target: Protein-tyrosine kinase 2-beta (Homo sapiens, UniProt Q14289);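 also: potency of inhibitors of PYK2 kinase phosphorylation of poly-GT substrate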
Sequence of Protein-tyrosine kinase 2-beta (Q14289 whole entry): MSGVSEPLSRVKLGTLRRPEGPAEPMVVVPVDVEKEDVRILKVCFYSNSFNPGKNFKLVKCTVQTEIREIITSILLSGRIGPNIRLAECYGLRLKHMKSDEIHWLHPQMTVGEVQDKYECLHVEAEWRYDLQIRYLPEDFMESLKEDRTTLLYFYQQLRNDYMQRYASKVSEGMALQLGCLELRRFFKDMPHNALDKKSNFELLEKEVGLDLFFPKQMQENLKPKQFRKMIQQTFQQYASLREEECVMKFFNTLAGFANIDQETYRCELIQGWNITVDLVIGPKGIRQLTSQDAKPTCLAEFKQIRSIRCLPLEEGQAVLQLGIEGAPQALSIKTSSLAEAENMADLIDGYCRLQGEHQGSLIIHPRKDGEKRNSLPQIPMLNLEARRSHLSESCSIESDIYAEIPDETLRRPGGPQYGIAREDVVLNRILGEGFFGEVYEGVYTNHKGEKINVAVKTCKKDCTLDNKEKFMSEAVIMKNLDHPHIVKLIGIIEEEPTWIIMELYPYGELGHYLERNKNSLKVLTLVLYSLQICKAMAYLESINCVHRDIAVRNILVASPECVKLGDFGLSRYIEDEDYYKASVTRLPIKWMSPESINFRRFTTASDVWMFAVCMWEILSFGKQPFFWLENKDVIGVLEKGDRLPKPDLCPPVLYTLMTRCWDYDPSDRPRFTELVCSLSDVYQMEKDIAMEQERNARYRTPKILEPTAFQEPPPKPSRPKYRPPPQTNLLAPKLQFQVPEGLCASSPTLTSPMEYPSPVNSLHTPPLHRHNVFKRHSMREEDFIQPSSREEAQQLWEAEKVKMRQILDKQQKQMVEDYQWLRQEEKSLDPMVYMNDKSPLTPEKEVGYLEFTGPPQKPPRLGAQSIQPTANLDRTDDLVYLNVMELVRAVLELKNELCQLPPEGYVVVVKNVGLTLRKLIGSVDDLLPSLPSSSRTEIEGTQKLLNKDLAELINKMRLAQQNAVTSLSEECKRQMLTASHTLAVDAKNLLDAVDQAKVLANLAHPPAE

[17] = cytotoxicity in KRAS-transformed pancreatic duct cells, primary screen, cell-based, fluorescence, HTS (AID 431); type: functional; conditions: Homo sapiens;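 also: cell line used: HPDE-C7K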
[18] = Artemis endonuclease inhibitor potency, dose response, biochemical, fluorescence intensity (AID 720701); type: functional;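 also: Artemis endonuclease enzyme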
[19] = system: Streptococcus sp. 'group A'; test: growth inhibition of control SK(-) GAS strain, dose response, counter-screen for streptokinase expression inhibitor project, luminescence, kanamycin, BacTiterGlo, confirmation (AID 1900); type: functional, organism-based
INS1 = test: beta cell apoptosis inhibitors, cytokine rescue, dose response, luminescence, retest (AID 449756); type: functional, cell-based; conditions: Rattus norvegicus;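 also: cell death triggered by IL-1 beta plus TNF-alpha plus IFN-gamma mixture; protective hits raise ATP signal compared with cytokine alone wells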
Streptococcus = test: Group A Streptococcus viability loss, dose response, counter-screen for streptokinase expression inhibitor project, luminescence, BacTiterGlo (AID 1915); type: functional, organism-based;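 also: potency for reduction of bacterial viability or growth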
[20] = control 3'UTR Renilla luciferase suppression, dose response, counter-screen for Shn3 inhibitor project, cell-based, Clone20-Shn3RL, cherry-picked (AID 624133); type: functional
[21] = cytotoxicity in HPDE-C7 cells, cell-based, fluorescence, HTS (AID 430); type: functional; conditions: Homo sapiens
[22] = Shn3 3'UTR reporter inhibitors, dose response, cell-based, Clone20 osteoblasts, firefly luciferase, cherry-picked (AID 624132); type: functional;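 also: firefly luciferase luminescence from reporter carrying the Shn3 3'UTR in osteoblasts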
[23] = biological target: Peroxisome proliferator-activated receptor gamma/Nuclear receptor corepressor 2 (Homo sapiens, UniProt P37231+Q9Y618); test: Counterscreen for NR2E3 inverse agonists: TR-FRET-based biochemical high throughput dose response assay to identify inverse agonists of the interaction between peroxisome proliferator-activated receptor gamma (PPARg) and nuclear receptor co-repressor 2 (NCOR2).; type: functional
[24] = biological target: Photoreceptor-specific nuclear receptor (Homo sapiens, UniProt Q9Y5X4); test: NR2E3 inverse agonists, dose response, biochemical, TR-FRET (AID 463256); type: functional
Sequence of Photoreceptor-specific nuclear receptor (Q9Y5X4 whole entry): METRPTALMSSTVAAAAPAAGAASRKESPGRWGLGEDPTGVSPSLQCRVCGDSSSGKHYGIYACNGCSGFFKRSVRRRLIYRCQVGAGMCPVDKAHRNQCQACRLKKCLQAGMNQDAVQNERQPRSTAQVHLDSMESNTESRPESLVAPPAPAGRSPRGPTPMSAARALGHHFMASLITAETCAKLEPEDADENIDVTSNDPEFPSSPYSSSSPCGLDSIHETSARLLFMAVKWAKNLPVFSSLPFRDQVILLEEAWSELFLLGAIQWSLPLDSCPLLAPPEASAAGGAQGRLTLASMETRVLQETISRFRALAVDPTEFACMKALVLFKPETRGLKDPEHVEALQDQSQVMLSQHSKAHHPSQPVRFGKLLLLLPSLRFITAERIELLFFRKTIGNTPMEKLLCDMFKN

Cc1ccc(Cn2ccs/c2=N\C(=O)CCl)cc1
AC50 (Paired box protein Pax-8): 1.31 µM (active)
AC50 [1]: 3.73 µM (active)
IC50 (Jurkat): 0.49 µM (active)
IC50 [2]: 0.744 µM (active)
IC50 [3]: > 80 µM (inactive)
CC50 [4]: 0.299 µM (active)

N=C1/C(=C/c2ccc(OC(=O)c3ccco3)cc2)C(=O)N=C2SC=CN12
IC50 (cells): 10.9 µM (active)
IC50 [5]: > 100 µM (active)

CC(=O)c1cccc(NC(=O)C2C3C=CC(C3=C(c3ccccc3)c3ccccc3)C2C(=O)O)c1 (centres undefined)
IC50 [6]: 8.12 µM (active)
IC50 [7]: > 50 µM (active)
IC50 [8]: 44.5 µM (active)
IC50 [9]: > 100 µM (active)

Cc1ccc(-c2cc(O)[nH]n2)c(C)c1
EC50 (Protein RecA): 0.502 µM (active)
IC50 (Aspartyl aminopeptidase): > 73.5 µM (not active)
IC50 (Procathepsin L): > 59.6 µM (not active)
AC50 [10]: 2.53 µM (active)
IC50 (Leucine aminopeptidase): < 1 µM (active)

O=Cc1ccc(OC2C=CC(C#Cc3ccccc3)OC2CO)cc1 (centres undefined)
AC50 (Cytochrome P450 3A4): 3.98 µM (inconclusive)
AC50 (Cytochrome P450 2C19): 0.631 µM (inconclusive)

O=C1NC(=S)NC(=O)C1=NNc1ccc(S(=O)(=O)N2CCc3ccccc32)cc1
CC50 (Vero): > 20 µM (active)
EC50 [11]: > 91.2 µM (inactive)
IC50 [6]: 8.57 µM (active)
EC50 [12]: 0.62 µM (active)
IC50 [8]: 62.4 µM (active)
EC50 [13]: > 91.2 µM (inactive)

CCCOP(=O)(c1ccc(N(C)C)cc1)C(Nc1ccccc1)c1ccc(C)cc1 (centres undefined)
EC50 [14]: > 120 µM (not active)

CN1CCc2c(sc(/N=C/c3ccco3)c2C(N)=O)C1
IC50 (14-3-3 protein gamma): > 50 µM (not active)

CCn1c(=O)c(C(=O)Nc2nc3ccccc3[nH]2)c(O)c2ccccc21
IC50 [15]: > 50 µM (not active)
IC50 [16]: > 69.5 µM (not active)
EC50 [17]: 5.58 µM (active)
IC50 [18]: 3.81 µM (active)
EC50 [19]: 0.992 µM (active)
AC50 (INS1): 3.83 µM (active)
EC50 (Streptococcus): 2.99 µM (active)
AC50 [20]: 4.17 µM (active)
EC50 [21]: 4.14 µM (active)
AC50 [22]: 6.01 µM (active)

COc1ccc(N2CC(=O)C(c3nc(-c4ccccc4)cs3)=C2N)cc1
IC50 [23]: 24.7 µM (not active)
IC50 [24]: 13.4 µM (not active)
